Values quoted from earlier work in patent US20260183237A1, “NANOEMULSION WITHOUT PROPYLENE GLYCOL” (BIOFRONTERA, INC., priority 2023, published 2026).

NCC(=O)CCC(=O)O [5-aminolevulinic acid]
octanol-water partition coefficient (logP): around −3
